According to PubChem BioAssay (NCI):
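Following 48 hours of exposure in 96-well plates, responses at five concentrations were used to interpolate endpoints linearly. GI50 = concentration required for 50% inhibition of growth. At the TGI there is no net growth.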

What was measured:
Assay in all cases: inhibition of tumour cell growth, NCI panel, 48 h
[1] = tested on: 786-0 renal
[2] = tested on: A498 renal
[3] = tested on: A549 NSCLC
[4] = tested on: ACHN renal
[5] = tested on: BT-549 breast
[6] = tested on: CAKI-1 renal
[7] = tested on: COLO 205 colon
[8] = tested on: DU-145 prostate
[9] = tested on: EKVX NSCLC
[10] = tested on: HCC-2998 colon
[11] = tested on: HCT-116 colon
[12] = tested on: HCT-15 colon
[13] = tested on: HOP-62 NSCLC
[14] = tested on: HOP-92 NSCLC
[15] = tested on: HS 578T breast
[16] = tested on: HT29 colon
[17] = tested on: IGROV1 ovarian
[18] = tested on: K-562 leukemia
[19] = tested on: KM12 colon
[20] = tested on: LOX IMVI melanoma
[21] = tested on: M14 melanoma
[22] = tested on: MALME-3M melanoma
[23] = tested on: MCF7 breast
[24] = tested on: MDA-MB-435
[25] = tested on: MOLT-4 leukemia
[26] = tested on: NCI-H226 lung
[27] = tested on: NCI-H23 lung
[28] = tested on: NCI-H460 lung
[29] = tested on: NCI-H522 lung
[30] = tested on: NCI/ADR-RES ovarian
[31] = tested on: OVCAR-3 ovarian
[32] = tested on: OVCAR-4 ovarian
[33] = tested on: OVCAR-5 ovarian
[34] = tested on: OVCAR-8 ovarian
[35] = tested on: PC-3 prostate
[36] = tested on: RPMI-8226 leukemia
[37] = tested on: RXF 393 renal
[38] = tested on: SF-268 CNS
[39] = tested on: SF-295 CNS
[40] = tested on: SF-539 CNS
[41] = tested on: SK-MEL-2 melanoma
[42] = tested on: SK-MEL-28 melanoma
[43] = tested on: SK-MEL-5 melanoma
[44] = tested on: SK-OV-3 ovarian
[45] = tested on: SN12C renal
[46] = tested on: SNB-19 CNS
[47] = tested on: SNB-75 CNS
[48] = tested on: SW-620 colon
[49] = tested on: T-47D breast
[50] = tested on: TK-10 renal
[51] = tested on: U251 CNS
[52] = tested on: UACC-257 melanoma
[53] = tested on: UACC-62 melanoma
[54] = tested on: UO-31 renal
[55] = tested on: CCRF-CEM leukemia
[56] = tested on: MDA-MB-231 breast

For O=C(CN1C(=O)S/C(=C\C(Cl)=C\c2ccccc2)C1=O)NCCCn1ccnc1, the GI50 [1] was 1.98 µM, the TGI [1] was 3.91 µM and the GI50 [2] was 1.28 µM. The TGI [2] was 5.57 µM, the GI50 [3] was 3.3 µM and the TGI [3] was 23.2 µM. For the same molecule, the GI50 [4] was 1.99 µM, the TGI [4] was 5.22 µM and the GI50 [5] was 2.12 µM. For the same molecule, the TGI [5] was 4.83 µM, the GI50 [6] was 1.91 µM and the TGI [6] was 4.16 µM. The GI50 [7] was 2.1 µM, the TGI [7] was 4.82 µM and the GI50 [8] was 2.22 µM. For the same molecule, the TGI [8] was 5.64 µM, the GI50 [9] was 2.43 µM and the TGI [9] was 6.69 µM. The GI50 [10] was 1.88 µM, the TGI [10] was 3.57 µM and the GI50 [11] was 1.53 µM. It also gave a TGI [11] of 3.14 µM, a GI50 [12] of 1.95 µM and a TGI [12] of 7 µM. It also gave a GI50 [13] of 3.45 µM, a TGI [13] of 22.5 µM and a GI50 [14] of 1.76 µM. The TGI [14] was 4.46 µM, the GI50 [15] was 2.4 µM and the TGI [15] was 7.35 µM. For the same molecule, the GI50 [16] was 2.18 µM, the TGI [16] was 6.07 µM and the GI50 [17] was 1.82 µM. For the same molecule, the TGI [17] was 4.23 µM, the GI50 [18] was 2.17 µM and the TGI [18] was greater than 100 µM. For the same molecule, the GI50 [19] was 1.95 µM, the TGI [19] was 4.22 µM and the GI50 [20] was 1.37 µM. The TGI [20] was 2.75 µM, the GI50 [21] was 1.66 µM and the TGI [21] was 3.59 µM. For the same molecule, the GI50 [22] was 1.82 µM, the TGI [22] was 4.9 µM and the GI50 [23] was 1.36 µM. For the same molecule, the TGI [23] was 6.11 µM, the GI50 [24] was 1.99 µM and the TGI [24] was 4.19 µM. It also gave a GI50 [25] of 2.1 µM, a TGI [25] of 7.57 µM and a GI50 [26] of 2.16 µM. The TGI [26] was 5.19 µM, the GI50 [27] was 2.26 µM and the TGI [27] was 6.88 µM. The GI50 [28] was 2.21 µM, the TGI [28] was 6.44 µM and the GI50 [29] was 2.02 µM. The TGI [29] was 5.15 µM, the GI50 [30] was 4.13 µM and the TGI [30] was greater than 100 µM. It also gave a GI50 [31] of 1.76 µM, a TGI [31] of 3.25 µM and a GI50 [32] of 1.86 µM. It also gave a TGI [32] of 4.39 µM, a GI50 [33] of 2.4 µM and a TGI [33] of 6.47 µM. The GI50 [34] was 2.85 µM, the TGI [34] was greater than 100 µM and the GI50 [35] was 2.03 µM. It also gave a TGI [35] of 5.74 µM, a GI50 [36] of 1.78 µM and a TGI [36] of 6.74 µM. For the same molecule, the GI50 [37] was 1.83 µM, the TGI [37] was 3.68 µM and the GI50 [38] was 2.52 µM. For the same molecule, the TGI [38] was 7.65 µM, the GI50 [39] was 10 µM and the TGI [39] was 24.4 µM. The GI50 [40] was 2.08 µM, the TGI [40] was 5.27 µM and the GI50 [41] was 2.8 µM. It also gave a TGI [41] of 9.55 µM, a GI50 [42] of 1.85 µM and a TGI [42] of 3.72 µM. It also gave a GI50 [43] of 1.68 µM, a TGI [43] of 3.06 µM and a GI50 [44] of 5.23 µM. It also gave a TGI [44] greater than 100 µM, a GI50 [45] of 2.26 µM and a TGI [45] of 7.49 µM. For the same molecule, the GI50 [46] was 3.14 µM, the TGI [46] was 13 µM and the GI50 [47] was 1.22 µM. The TGI [47] was 12.9 µM, the GI50 [48] was 1.72 µM and the TGI [48] was 3.67 µM. It also gave a GI50 [49] of 2.8 µM, a TGI [49] of 17.2 µM and a GI50 [50] of 2.3 µM. The TGI [50] was 4.53 µM, the GI50 [51] was 2.54 µM and the TGI [51] was 8.01 µM. The GI50 [52] was 2.63 µM, the TGI [52] was 10.2 µM and the GI50 [53] was 1.67 µM. For the same molecule, the TGI [53] was 3.73 µM, the GI50 [54] was 1.61 µM and the TGI [54] was 3.49 µM.
O=C(NN1C(=O)CSC12CCC(c1ccccc1)CC2)c1[nH]c2ccc(F)cc2c1-c1ccccc1 (stereo not drawn) showed a GI50 [1] of 16.4 µM, a TGI [1] of 33.8 µM and a GI50 [2] of 18.5 µM. The TGI [2] was 34.9 µM, the GI50 [3] was 15.7 µM and the TGI [3] was 30.8 µM. For the same molecule, the GI50 [4] was 17.2 µM, the TGI [4] was 31.8 µM and the GI50 [5] was 19.9 µM. For the same molecule, the TGI [5] was 34.8 µM, the GI50 [6] was 17.5 µM and the TGI [6] was 36.6 µM. It also gave a GI50 [55] of 19.4 µM, a TGI [55] of 41.1 µM and a GI50 [7] of 21.2 µM. The TGI [7] was 68.3 µM, the GI50 [8] was 16.5 µM and the TGI [8] was 33.6 µM. It also gave a GI50 [9] of 26.7 µM, a TGI [9] of 62 µM and a GI50 [10] of 14.9 µM. It also gave a TGI [10] of 28.3 µM, a GI50 [11] of 14 µM and a TGI [11] of 27.1 µM. It also gave a GI50 [12] of 16.6 µM, a TGI [12] of 32.7 µM and a GI50 [13] of 18.3 µM. For the same molecule, the TGI [13] was 34.7 µM, the GI50 [14] was 17.2 µM and the TGI [14] was 34.5 µM. For the same molecule, the GI50 [15] was 21.4 µM, the TGI [15] was 52.3 µM and the GI50 [16] was 14.8 µM. The TGI [16] was 30.5 µM, the GI50 [17] was 13 µM and the TGI [17] was 25.7 µM. It also gave a GI50 [18] of 23.7 µM, a TGI [18] of 62.9 µM and a GI50 [19] of 16 µM. The TGI [19] was 30.7 µM, the GI50 [20] was 17.1 µM and the TGI [20] was 30.8 µM. It also gave a GI50 [21] of 20.1 µM, a TGI [21] of 35.6 µM and a GI50 [22] of 16.2 µM. The TGI [22] was 30.9 µM, the GI50 [23] was 25.3 µM and the TGI [23] was 71.8 µM. The GI50 [56] was 16.9 µM, the TGI [56] was 31.6 µM and the GI50 [24] was 18.8 µM. The TGI [24] was 36.7 µM, the GI50 [25] was 12.2 µM and the TGI [25] was 33.7 µM. The GI50 [26] was 19.2 µM, the TGI [26] was 38.6 µM and the GI50 [27] was 17.4 µM. It also gave a TGI [27] of 32 µM, a GI50 [28] of 19.6 µM and a TGI [28] of 47.7 µM. The GI50 [29] was 14.3 µM, the TGI [29] was 28.2 µM and the GI50 [31] was 17.1 µM. For the same molecule, the TGI [31] was 31.5 µM, the GI50 [32] was 15.8 µM and the TGI [32] was 32.5 µM. For the same molecule, the GI50 [33] was 18.5 µM, the TGI [33] was 34.7 µM and the GI50 [34] was 17.8 µM. For the same molecule, the TGI [34] was 36.5 µM, the GI50 [35] was 18.1 µM and the TGI [35] was 39.6 µM. The GI50 [36] was 13.8 µM, the TGI [36] was 31.8 µM and the GI50 [37] was 15.3 µM. It also gave a TGI [37] of 29.5 µM, a GI50 [38] of 20 µM and a TGI [38] of 48.4 µM. The GI50 [39] was 22 µM, the TGI [39] was 41.6 µM and the GI50 [40] was 20.9 µM. It also gave a TGI [40] of 38.3 µM, a GI50 [41] of 17.6 µM and a TGI [41] of 33.2 µM. It also gave a GI50 [42] of 18.1 µM, a TGI [42] of 34.3 µM and a GI50 [43] of 17.5 µM. It also gave a TGI [43] of 32.3 µM, a GI50 [44] of 37.7 µM and a TGI [44] greater than 100 µM. It also gave a GI50 [45] of 17.6 µM, a TGI [45] of 31.8 µM and a GI50 [46] of 29.8 µM. The TGI [46] was greater than 100 µM, the GI50 [47] was 18 µM and the TGI [47] was 36.3 µM. It also gave a GI50 [48] of 17.4 µM, a TGI [48] of 36.8 µM and a GI50 [49] of 33.5 µM. It also gave a TGI [49] greater than 100 µM, a GI50 [50] of 17.3 µM and a TGI [50] of 31.7 µM. It also gave a GI50 [51] of 15.6 µM, a TGI [51] of 29.9 µM and a GI50 [52] of 19.3 µM. It also gave a TGI [52] of 35.6 µM, a GI50 [53] of 10.8 µM and a TGI [53] of 23.8 µM. The GI50 [54] was 17 µM and the TGI [54] was 31 µM.
